Source: PubChem BioAssay (NCI)
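96-well plates; 48 h exposure; 5 concentrations. Endpoints by linear interpolation between flanking doses. Not reached: highest tested concentration assigned. GI50: concentration for 50% inhibition of growth. The concentration for full growth arrest is given as TGI.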

Assays:
Test in all cases: inhibition of tumour cell growth, NCI panel, 48 h
[1] = system: DMS 273 small cell lung
[2] = system: SK-MEL-5 melanoma
[3] = system: SK-MEL-28 melanoma
[4] = system: SN12C renal
[5] = system: HOP-18 NSCLC
[6] = system: XF 498 CNS
[7] = system: RPMI-8226 leukemia
[8] = system: ACHN renal
[9] = system: UACC-62 melanoma
[10] = system: NCI-H522 lung
[11] = system: RXF 393 renal
[12] = system: HOP-92 NSCLC
[13] = system: IGROV1 ovarian
[14] = system: HL-60(TB) leukemia
[15] = system: HOP-62 NSCLC
[16] = system: TK-10 renal
[17] = system: NCI-H226 lung
[18] = system: UACC-257 melanoma
[19] = system: SNB-78 CNS
[20] = system: RXF-631 renal
[21] = system: EKVX NSCLC
[22] = system: HCT-116 colon
[23] = system: SNB-75 CNS
[24] = system: SNB-19 CNS
[25] = system: DLD-1 colon
[26] = system: K-562 leukemia
[27] = system: DMS 114 small cell lung
[28] = system: HCT-15 colon
[29] = system: HT29 colon
[30] = system: KM12 colon
[31] = system: UO-31 renal
[32] = system: SF-539 CNS
[33] = system: 786-0 renal
[34] = system: M19-MEL melanoma
[35] = system: KM20L2 colon
[36] = system: SK-MEL-2 melanoma
[37] = system: COLO 205 colon
[38] = system: OVCAR-3 ovarian
[39] = system: OVCAR-4 ovarian
[40] = system: LOX IMVI melanoma
[41] = system: HCC-2998 colon
[42] = system: NCI-H460 lung
[43] = system: SW-620 colon
[44] = system: CCRF-CEM leukemia
[45] = system: M14 melanoma
[46] = system: MOLT-4 leukemia
[47] = system: A549 NSCLC
[48] = system: NCI-H23 lung
[49] = system: SF-295 CNS
[50] = system: SK-OV-3 ovarian
[51] = system: U251 CNS
[52] = system: OVCAR-8 ovarian
[53] = system: A498 renal
[54] = system: SF-268 CNS
[55] = system: CAKI-1 renal
[56] = system: LXFL 529 NSCLC
[57] = system: MALME-3M melanoma
[58] = system: SR leukemia

## CC1(Sc2ccccc2)CN(Cc2ccccc2)C1=O (stereo not drawn)
[1]
  TGI: > 100 µM
[2]
  TGI: > 100 µM
[3]
  TGI: > 100 µM
[4]
  TGI: > 100 µM
[5]
  TGI: > 100 µM
[6]
  TGI: > 100 µM
[7]
  TGI: > 100 µM
[8]
  TGI: > 100 µM
[9]
  TGI: > 100 µM
[10]
  TGI: > 100 µM
[11]
  TGI: > 100 µM
[12]
  TGI: 86 µM
[13]
  TGI: > 100 µM
[14]
  TGI: > 100 µM
[15]
  TGI: > 100 µM
[16]
  TGI: > 100 µM
[17]
  TGI: > 100 µM
[18]
  TGI: > 100 µM
[19]
  TGI: > 100 µM
[20]
  TGI: > 100 µM
[21]
  TGI: > 100 µM
[22]
  TGI: > 100 µM
[23]
  TGI: > 100 µM
[24]
  TGI: > 100 µM
[25]
  TGI: > 100 µM
[26]
  TGI: > 100 µM
[27]
  TGI: > 100 µM
[28]
  TGI: > 100 µM
[29]
  TGI: > 100 µM
[30]
  TGI: > 100 µM
[31]
  TGI: > 100 µM
[32]
  TGI: > 100 µM
[33]
  TGI: > 100 µM
[34]
  TGI: > 100 µM
[35]
  TGI: > 100 µM
[36]
  TGI: > 100 µM
[37]
  TGI: > 100 µM
[38]
  TGI: > 100 µM
[39]
  TGI: > 100 µM
[40]
  TGI: > 100 µM
[41]
  TGI: > 100 µM
[42]
  TGI: > 100 µM
[43]
  TGI: > 100 µM
[44]
  TGI: > 100 µM
[45]
  TGI: > 100 µM
[46]
  TGI: > 100 µM
[47]
  TGI: > 100 µM
[48]
  TGI: > 100 µM
[49]
  TGI: > 100 µM
[50]
  TGI: > 100 µM
[51]
  TGI: > 100 µM
[52]
  TGI: > 100 µM
[53]
  TGI: > 100 µM
[54]
  TGI: > 100 µM

## CCOP(=O)(OCC)C1CCCCOC1=O (stereo not drawn)
[1]
  TGI: > 100 µM
[2]
  TGI: > 100 µM
[3]
  TGI: > 100 µM
[4]
  TGI: > 100 µM
[5]
  TGI: > 100 µM
[6]
  TGI: > 100 µM
[7]
  TGI: > 100 µM
[8]
  TGI: > 100 µM
[9]
  TGI: > 100 µM
[55]
  TGI: > 100 µM
[11]
  TGI: > 100 µM
[56]
  TGI: > 100 µM
[13]
  TGI: > 100 µM
[14]
  TGI: > 100 µM
[15]
  TGI: > 100 µM
[16]
  TGI: > 100 µM
[18]
  TGI: > 100 µM
[19]
  TGI: > 100 µM
[20]
  TGI: > 100 µM
[21]
  TGI: > 100 µM
[22]
  TGI: > 100 µM
[23]
  TGI: > 100 µM
[24]
  TGI: > 100 µM
[25]
  TGI: > 100 µM
[26]
  TGI: > 100 µM
[27]
  TGI: > 100 µM
[28]
  TGI: > 100 µM
[29]
  TGI: > 100 µM
[30]
  TGI: > 100 µM
[31]
  TGI: > 100 µM
[32]
  TGI: > 100 µM
[33]
  TGI: > 100 µM
[34]
  TGI: > 100 µM
[35]
  TGI: > 100 µM
[36]
  TGI: > 100 µM
[37]
  TGI: > 100 µM
[38]
  TGI: > 100 µM
[39]
  TGI: > 100 µM
[40]
  TGI: 40 µM
[41]
  TGI: > 100 µM
[57]
  TGI: > 100 µM
[42]
  TGI: > 100 µM
[43]
  TGI: > 100 µM
[44]
  TGI: > 100 µM
[45]
  TGI: > 100 µM
[46]
  TGI: > 100 µM
[47]
  TGI: > 100 µM
[48]
  TGI: > 100 µM
[49]
  TGI: > 100 µM
[50]
  TGI: > 100 µM
[51]
  TGI: > 100 µM
[52]
  TGI: > 100 µM
[53]
  TGI: > 100 µM
[54]
  TGI: > 100 µM

## COc1ccccc1[N-]C(C1=C([O-])c2ccccc2C1=O)c1ccccc1.COc1ccccc1[N-]C(C1=C([O-])c2ccccc2C1=O)c1ccccc1.[Cu+2] (stereo not drawn)
[1]
  GI50: 4.59 µM
  TGI: > 100 µM
[2]
  GI50: 5.39 µM
  TGI: 72.7 µM
[3]
  GI50: 16.2 µM
  TGI: > 100 µM
[4]
  GI50: 9.37 µM
  TGI: > 100 µM
[5]
  GI50: 18.3 µM
  TGI: 95.1 µM
[7]
  GI50: 3.9 µM
  TGI: > 100 µM
[8]
  GI50: 10.9 µM
  TGI: 74.7 µM
[9]
  GI50: 6.66 µM
  TGI: 42.4 µM
[55]
  GI50: 12.7 µM
  TGI: 54.5 µM
[56]
  GI50: 22.4 µM
  TGI: > 100 µM
[12]
  GI50: 9.86 µM
  TGI: 69.7 µM
[13]
  GI50: 9.3 µM
  TGI: > 100 µM
[14]
  GI50: 3.25 µM
  TGI: > 100 µM
[15]
  GI50: 25.2 µM
  TGI: 68.6 µM
[16]
  GI50: 31.7 µM
  TGI: 68.3 µM
[18]
  GI50: 12.9 µM
  TGI: > 100 µM
[19]
  GI50: 8.19 µM
  TGI: > 100 µM
[20]
  GI50: 12.7 µM
  TGI: > 100 µM
[22]
  GI50: 3.26 µM
  TGI: > 100 µM
[23]
  GI50: 11.9 µM
  TGI: 37.1 µM
[24]
  GI50: 23.8 µM
  TGI: 81.8 µM
[25]
  GI50: 3.7 µM
  TGI: > 100 µM
[26]
  GI50: 3.18 µM
  TGI: > 100 µM
[27]
  GI50: 3.01 µM
  TGI: > 100 µM
[28]
  GI50: 6.51 µM
  TGI: > 100 µM
[29]
  GI50: 18.2 µM
  TGI: > 100 µM
[30]
  GI50: 5.76 µM
  TGI: 43.1 µM
[31]
  GI50: 12 µM
  TGI: 75.2 µM
[32]
  GI50: 3.82 µM
  TGI: 15.1 µM
[33]
  GI50: 7.76 µM
  TGI: > 100 µM
[34]
  GI50: 41.7 µM
  TGI: > 100 µM
[35]
  GI50: 25.4 µM
  TGI: > 100 µM
[37]
  GI50: 3.95 µM
  TGI: 30 µM
[38]
  GI50: 13.8 µM
  TGI: 54.2 µM
[40]
  GI50: 8.64 µM
  TGI: 95.2 µM
[58]
  GI50: 8.58 µM
  TGI: > 100 µM
[57]
  GI50: 6.85 µM
  TGI: > 100 µM
[42]
  GI50: 6.76 µM
  TGI: > 100 µM
[43]
  GI50: 6.08 µM
  TGI: > 100 µM
[44]
  GI50: 3.49 µM
  TGI: > 100 µM
[45]
  GI50: 4.58 µM
  TGI: > 100 µM
[46]
  GI50: 5.98 µM
  TGI: > 100 µM
[47]
  GI50: 4.63 µM
  TGI: 52.9 µM
[48]
  GI50: 7.17 µM
  TGI: 61.2 µM
[49]
  GI50: 5.33 µM
  TGI: > 100 µM
[50]
  GI50: 2.09 µM
  TGI: 6.57 µM
[51]
  GI50: 2.88 µM
  TGI: 8.33 µM
[52]
  GI50: 7.52 µM
  TGI: > 100 µM
[53]
  GI50: 14.7 µM
  TGI: 53.7 µM
[54]
  GI50: 5.3 µM
  TGI: > 100 µM
